Laboratory results as given in patent US6770287B1, “Biocidal cellulosic material” (The Regents of the University of California, priority 2000, dated 2004).

Columns and labels:
[1] = test system: S. aureus; experiment: AATCC Test Method 100 quantitative antibacterial test (bacterial reduction); type: cell-based, Staphylococcu aureus (ATCC 5368); conditions: contact time 60 min
Source text: (§1) AATCC Test Method 100 was adopted in this study. According to this test method, four pieces of staked circular fabric swatches 4.8±0.1 (about one grams) were inoculated with 1.0±0.1 milliliter of inoculum in a 250 milliliter jar. The inoculum was a nutrient broth culture containing over 1.0×10^6 clone forming units (CFU) of organisms. After the swatches were inoculated, they were neutralized by 100 milliliter of a 0.02% sodium thiosulfate solution in the jar. The contact time was the time between inoculation and neutralization. The jar was vigorously shaken and the neutralized solution was diluted in serial. The dilutions, usually 100, 101, and 102, were plated on nutrient agar and incubated for 18-24 hours at 37° C. The number of bacteria recovered from the inoculated finished fabrics was counted and compared with that from untreated fabrics. Six log reduction means the total inactivation of bacteria, and one log reduction means that finished fabrics reduced bacteria counts from 106 CFU to 105 CFU.
(§2) Finished fabrics prepared from solutions containing 1%-6% of monomethylol-5,5-dimethylhydantoin following the protocol set forth in Example 1 with pickup rates below 1% have been tested.
(§3) Fabrics finished in accordance with the protocol set forth in Example II with Anti-2, i.e., 1,3-dimethylol-5,5-dimethylhydantoin, were also tested with AATCC test method 100, which was briefly described in Example IV. In the tests, a diluted CLOROX® solution containing 0.01 % active chlorine was used to chlorinate the finished fabrics.

[2] = test system: E. coli; experiment: as above; type: cell-based, Escherichia coli (ATCC 2666); conditions: contact time 60 min
Source text: as §1, §2, §3

[3] = Anti-2 2%, #400, last column pair
[4] = Anti-2 2%, #7409, last column pair
[5] = Anti-2 6%, #400, last column pair
[6] = Anti-2 6%, #7409, last column pair
[7] = Anti-2 10%, #400, last column pair
[8] = Anti-2 10%, #7409, last column pair

CC1(C)C(=O)N(CO)C(=O)N1CO [Anti-2, 1,3-dimethylol-5,5-dimethylhydantoin]
6 log: Durable Antibacterial Properties After fifteen washes S. aur. ([1]; Anti-2 2%, #400) | Durable Antibacterial Properties After five washes S. aur. ([1]; Anti-2 2%, #400) | Durable Antibacterial Properties After ten washes S. aur. ([1]; Anti-2 2%, #400) | Durable Antibacterial Properties After twenty washes S. aur. ([1]; Anti-2 2%, #400) | Durable Antibacterial Properties After twenty washes S. aur. [1, 3] | Durable Antibacterial Properties After fifteen washes S. aur. ([1]; Anti-2 2%, #7409) | Durable Antibacterial Properties After five washes S. aur. ([1]; Anti-2 2%, #7409) | Durable Antibacterial Properties After ten washes S. aur. ([1]; Anti-2 2%, #7409) | Durable Antibacterial Properties After twenty washes S. aur. ([1]; Anti-2 2%, #7409) | Durable Antibacterial Properties After twenty washes S. aur. [1, 4] | Durable Antibacterial Properties After fifteen washes S. aur. ([1]; Anti-2 6%, #400) | Durable Antibacterial Properties After five washes S. aur. ([1]; Anti-2 6%, #400) | Durable Antibacterial Properties After ten washes S. aur. ([1]; Anti-2 6%, #400) | Durable Antibacterial Properties After twenty washes S. aur. ([1]; Anti-2 6%, #400) | Durable Antibacterial Properties After twenty washes S. aur. [1, 5] | Durable Antibacterial Properties After fifteen washes S. aur. ([1]; Anti-2 6%, #7409) | Durable Antibacterial Properties After five washes S. aur. ([1]; Anti-2 6%, #7409) | Durable Antibacterial Properties After ten washes S. aur. ([1]; Anti-2 6%, #7409) | Durable Antibacterial Properties After twenty washes S. aur. ([1]; Anti-2 6%, #7409) | Durable Antibacterial Properties After twenty washes S. aur. [1, 6] | Durable Antibacterial Properties After fifteen washes S. aur. ([1]; Anti-2 10%, #400) | Durable Antibacterial Properties After five washes S. aur. ([1]; Anti-2 10%, #400) | Durable Antibacterial Properties After ten washes S. aur. ([1]; Anti-2 10%, #400) | Durable Antibacterial Properties After twenty washes S. aur. ([1]; Anti-2 10%, #400) | Durable Antibacterial Properties After twenty washes S. aur. [1, 7] | Durable Antibacterial Properties After fifteen washes S. aur. ([1]; Anti-2 10%, #7409) | Durable Antibacterial Properties After five washes S. aur. ([1]; Anti-2 10%, #7409) | Durable Antibacterial Properties After ten washes S. aur. ([1]; Anti-2 10%, #7409) | Durable Antibacterial Properties After twenty washes S. aur. ([1]; Anti-2 10%, #7409) | Durable Antibacterial Properties After twenty washes S. aur. [1, 8] | Durable Antibacterial Properties After fifteen washes E. coli ([2]; Anti-2 2%, #400) | Durable Antibacterial Properties After five washes E. coli ([2]; Anti-2 2%, #400) | Durable Antibacterial Properties After ten washes E. coli ([2]; Anti-2 2%, #400) | Durable Antibacterial Properties After twenty washes E. coli ([2]; Anti-2 2%, #400) | Durable Antibacterial Properties After twenty washes E. coli [2, 3] | Durable Antibacterial Properties After fifteen washes E. coli ([2]; Anti-2 2%, #7409) | Durable Antibacterial Properties After five washes E. coli ([2]; Anti-2 2%, #7409) | Durable Antibacterial Properties After ten washes E. coli ([2]; Anti-2 2%, #7409) | Durable Antibacterial Properties After twenty washes E. coli ([2]; Anti-2 2%, #7409) | Durable Antibacterial Properties After twenty washes E. coli [2, 4] | Durable Antibacterial Properties After fifteen washes E. coli ([2]; Anti-2 6%, #400) | Durable Antibacterial Properties After five washes E. coli ([2]; Anti-2 6%, #400) | Durable Antibacterial Properties After ten washes E. coli ([2]; Anti-2 6%, #400) | Durable Antibacterial Properties After twenty washes E. coli ([2]; Anti-2 6%, #400) | Durable Antibacterial Properties After twenty washes E. coli [2, 5] | Durable Antibacterial Properties After fifteen washes E. coli ([2]; Anti-2 6%, #7409) | Durable Antibacterial Properties After five washes E. coli ([2]; Anti-2 6%, #7409) | Durable Antibacterial Properties After ten washes E. coli ([2]; Anti-2 6%, #7409) | Durable Antibacterial Properties After twenty washes E. coli ([2]; Anti-2 6%, #7409) | Durable Antibacterial Properties After twenty washes E. coli [2, 6] | Durable Antibacterial Properties After fifteen washes E. coli ([2]; Anti-2 10%, #400) | Durable Antibacterial Properties After five washes E. coli ([2]; Anti-2 10%, #400) | Durable Antibacterial Properties After ten washes E. coli ([2]; Anti-2 10%, #400) | Durable Antibacterial Properties After twenty washes E. coli ([2]; Anti-2 10%, #400) | Durable Antibacterial Properties After twenty washes E. coli [2, 7] | Durable Antibacterial Properties After fifteen washes E. coli ([2]; Anti-2 10%, #7409) | Durable Antibacterial Properties After five washes E. coli ([2]; Anti-2 10%, #7409) | Durable Antibacterial Properties After ten washes E. coli ([2]; Anti-2 10%, #7409) | Durable Antibacterial Properties After twenty washes E. coli ([2]; Anti-2 10%, #7409) | Durable Antibacterial Properties After twenty washes E. coli [2, 8]
